From US11945816B2, “Inhibitors of EGFR and/or HER2 and methods of use” (Dana-Farber Cancer Institute, Inc., priority 2017, dated 2024)

How the values were obtained:
Type in all cases: cell-based
Settings in all cases: MTS assay, 72 hours
[1] = biological target: T1, HER2 InsYVMA (A775_G776insYVMA) transformed Ba/F3 cells (Homo sapiens, UniProt P04626, INS775YVMA); assay: Proliferation inhibition assay, HER2 InsYVMA transformed Ba/F3 cells
T1 construct: expressed in transfected cells; host or cells: Ba/F3
Method: (§1) Cell growth inhibition can be assessed by MTS assay or by Cell Titer Glo Luminescent Cell viability assay (Promega®). Cells are seeded and grow in culture plates before they are exposed to representative compounds of the application for various duration. The viability of the cells are then assessed. […] The growth curves can be fitted using a nonlinear regression model with sigmoidal dose response.
(§2) Cell growth inhibition was assessed by MTS assay for Ba/F3, DFCI58-229, and DFCI127c cells, or by Cell Titer Glo Luminescent Cell viability assay (Promega®) for DFC1362JC cells, 3000 Ba/F3 cells were seeded for per well in 96-well plates, and were exposed to representative compounds of the application (3.3 nM to 10 μM) for 72 hours. For DFCI58-229, DFCI127c, and DFC1362JC cells, 5000 cells were seeded per well. All experimental points included 6 to 12 wells. […] The growth curves were fitted using a nonlinear regression model with sigmoidal dose response.
(§3) Activities of representative compounds of the present application in inhibiting EGFR and HER2 were tested by MTS assay (for Ba/F3 cell, DFCI58-229 cell, and DFCI127c cells) or by CellTiter-Glot luminescent cell viability assay (for DFCI362JC cells). For assays with Ba/F3 cells, 3000 cells were seeded for per well in 96-well plates and were exposed to indicated compounds with a concentration of 3.3 to 10 μM for 72 hours. For assays with DFCI58-229 cell, DFCI127c cell, or DFCI362JC cell, 5000 cells were seeded per well in 96-well plates and were exposed to indicated compounds with a concentration of 3.3 to 10 μM for 72 hours.

[2] = biological target: T2, EGFR InsH transformed Ba/F3 cells (Homo sapiens, UniProt P00533, DUP773-773); assay: Proliferation inhibition assay, EGFR InsH transformed Ba/F3 cells
T2 construct: expressed in transfected cells; host or cells: Ba/F3
Method: as §1, §2, §3

[3] = biological target: T3, wild-type HER2 transformed Ba/F3 cells (Homo sapiens, UniProt P04626); assay: Proliferation inhibition assay, wild-type HER2 transformed Ba/F3 cells
T3 construct: expressed in transfected cells; host or cells: Ba/F3
Method: as §1, §2, §3

[4] = biological target: T4, EGFR InsGY (D770delinsGY) transformed Ba/F3 cells (Homo sapiens, UniProt P00533, D770Y/INS769G); assay: Proliferation inhibition assay, EGFR InsGY transformed Ba/F3 cells
T4 construct: expressed in transfected cells; host or cells: Ba/F3
Method: as §1, §2, §3

[5] = biological target: T5, wild-type EGFR transformed Ba/F3 cells (Homo sapiens, UniProt P00533); assay: Proliferation inhibition assay, wild-type EGFR transformed Ba/F3 cells
T5 construct: expressed in transfected cells; host or cells: Ba/F3
Method: as §1, §2, §3

[6] = biological target: T6, HER2 InsWLV transformed Ba/F3 cells (Homo sapiens, UniProt P04626, INS773WL/M774V); assay: Proliferation inhibition assay, HER2 InsWLV transformed Ba/F3 cells
T6 construct: expressed in transfected cells; host or cells: Ba/F3
Method: as §1, §2, §3

[7] = biological target: T7, EGFR InsSVD (D770_N771insSVD) transformed Ba/F3 cells (Homo sapiens, UniProt P00533, INS770SVD); assay: Proliferation inhibition assay, EGFR InsSVD transformed Ba/F3 cells
T7 construct: expressed in transfected cells; host or cells: Ba/F3
Method: as §1, §2, §3

T7 sequence (P00533 with tags, fused parts or gaps INS770SVD): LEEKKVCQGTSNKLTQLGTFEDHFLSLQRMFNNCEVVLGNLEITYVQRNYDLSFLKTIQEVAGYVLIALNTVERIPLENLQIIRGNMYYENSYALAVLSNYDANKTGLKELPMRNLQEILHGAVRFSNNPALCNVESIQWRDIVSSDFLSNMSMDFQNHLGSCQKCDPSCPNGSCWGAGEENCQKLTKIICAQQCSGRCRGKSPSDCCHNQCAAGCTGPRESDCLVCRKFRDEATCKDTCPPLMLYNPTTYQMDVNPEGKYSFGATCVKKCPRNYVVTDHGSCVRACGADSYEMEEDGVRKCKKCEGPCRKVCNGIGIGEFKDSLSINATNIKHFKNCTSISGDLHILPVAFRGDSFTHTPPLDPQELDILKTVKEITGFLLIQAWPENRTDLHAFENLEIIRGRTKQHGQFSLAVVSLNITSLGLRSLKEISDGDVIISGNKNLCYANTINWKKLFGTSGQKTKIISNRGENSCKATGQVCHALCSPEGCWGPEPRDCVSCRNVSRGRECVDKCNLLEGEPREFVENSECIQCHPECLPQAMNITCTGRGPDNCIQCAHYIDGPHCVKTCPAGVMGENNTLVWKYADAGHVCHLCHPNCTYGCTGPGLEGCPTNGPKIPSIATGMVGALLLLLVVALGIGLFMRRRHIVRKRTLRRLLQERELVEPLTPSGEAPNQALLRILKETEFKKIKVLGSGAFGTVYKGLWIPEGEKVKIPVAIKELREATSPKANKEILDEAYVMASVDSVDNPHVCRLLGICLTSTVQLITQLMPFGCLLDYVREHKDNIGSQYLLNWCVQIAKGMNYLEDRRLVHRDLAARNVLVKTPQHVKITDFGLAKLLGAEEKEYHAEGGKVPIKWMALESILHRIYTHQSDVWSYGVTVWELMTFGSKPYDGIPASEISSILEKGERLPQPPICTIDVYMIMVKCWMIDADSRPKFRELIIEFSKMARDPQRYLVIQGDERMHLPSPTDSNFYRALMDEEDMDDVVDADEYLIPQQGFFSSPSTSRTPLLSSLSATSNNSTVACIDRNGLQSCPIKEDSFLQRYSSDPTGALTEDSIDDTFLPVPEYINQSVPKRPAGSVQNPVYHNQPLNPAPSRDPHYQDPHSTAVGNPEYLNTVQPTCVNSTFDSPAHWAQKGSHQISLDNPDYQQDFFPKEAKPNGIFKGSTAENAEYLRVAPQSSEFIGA
T3 sequence (P04626 23-1255): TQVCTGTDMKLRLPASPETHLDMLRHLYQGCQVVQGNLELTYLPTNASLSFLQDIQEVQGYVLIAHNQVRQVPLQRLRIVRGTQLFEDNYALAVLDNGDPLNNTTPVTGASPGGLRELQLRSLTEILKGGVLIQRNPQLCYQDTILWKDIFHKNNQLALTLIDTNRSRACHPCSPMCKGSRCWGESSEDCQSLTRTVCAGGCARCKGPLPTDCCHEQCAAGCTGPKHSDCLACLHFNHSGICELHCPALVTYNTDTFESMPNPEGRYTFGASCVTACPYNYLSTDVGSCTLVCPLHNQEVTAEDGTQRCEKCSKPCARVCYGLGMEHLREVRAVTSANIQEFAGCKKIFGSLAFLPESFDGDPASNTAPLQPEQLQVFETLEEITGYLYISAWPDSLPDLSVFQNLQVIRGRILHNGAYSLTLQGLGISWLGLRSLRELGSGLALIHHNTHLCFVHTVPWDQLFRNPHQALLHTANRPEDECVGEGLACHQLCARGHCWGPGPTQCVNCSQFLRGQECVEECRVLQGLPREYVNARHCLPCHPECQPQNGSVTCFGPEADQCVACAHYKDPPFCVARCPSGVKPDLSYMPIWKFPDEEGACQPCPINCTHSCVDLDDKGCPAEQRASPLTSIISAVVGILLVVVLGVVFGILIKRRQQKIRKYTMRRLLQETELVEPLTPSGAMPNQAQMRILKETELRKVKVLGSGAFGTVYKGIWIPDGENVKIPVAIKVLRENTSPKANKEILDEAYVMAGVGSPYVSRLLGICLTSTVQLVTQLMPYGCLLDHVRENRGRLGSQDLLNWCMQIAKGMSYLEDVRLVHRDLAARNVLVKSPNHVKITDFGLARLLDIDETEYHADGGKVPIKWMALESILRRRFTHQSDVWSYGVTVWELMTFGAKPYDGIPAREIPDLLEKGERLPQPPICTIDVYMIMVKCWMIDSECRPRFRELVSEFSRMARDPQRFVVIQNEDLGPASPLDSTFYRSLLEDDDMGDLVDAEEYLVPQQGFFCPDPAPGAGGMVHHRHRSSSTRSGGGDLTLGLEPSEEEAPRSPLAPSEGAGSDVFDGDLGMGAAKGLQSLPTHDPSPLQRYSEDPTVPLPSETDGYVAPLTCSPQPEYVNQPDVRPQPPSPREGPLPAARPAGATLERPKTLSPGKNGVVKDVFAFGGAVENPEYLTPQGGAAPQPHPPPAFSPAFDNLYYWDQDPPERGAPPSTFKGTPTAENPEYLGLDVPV
T2 sequence (P00533 with tags, fused parts or gaps DUP773-773): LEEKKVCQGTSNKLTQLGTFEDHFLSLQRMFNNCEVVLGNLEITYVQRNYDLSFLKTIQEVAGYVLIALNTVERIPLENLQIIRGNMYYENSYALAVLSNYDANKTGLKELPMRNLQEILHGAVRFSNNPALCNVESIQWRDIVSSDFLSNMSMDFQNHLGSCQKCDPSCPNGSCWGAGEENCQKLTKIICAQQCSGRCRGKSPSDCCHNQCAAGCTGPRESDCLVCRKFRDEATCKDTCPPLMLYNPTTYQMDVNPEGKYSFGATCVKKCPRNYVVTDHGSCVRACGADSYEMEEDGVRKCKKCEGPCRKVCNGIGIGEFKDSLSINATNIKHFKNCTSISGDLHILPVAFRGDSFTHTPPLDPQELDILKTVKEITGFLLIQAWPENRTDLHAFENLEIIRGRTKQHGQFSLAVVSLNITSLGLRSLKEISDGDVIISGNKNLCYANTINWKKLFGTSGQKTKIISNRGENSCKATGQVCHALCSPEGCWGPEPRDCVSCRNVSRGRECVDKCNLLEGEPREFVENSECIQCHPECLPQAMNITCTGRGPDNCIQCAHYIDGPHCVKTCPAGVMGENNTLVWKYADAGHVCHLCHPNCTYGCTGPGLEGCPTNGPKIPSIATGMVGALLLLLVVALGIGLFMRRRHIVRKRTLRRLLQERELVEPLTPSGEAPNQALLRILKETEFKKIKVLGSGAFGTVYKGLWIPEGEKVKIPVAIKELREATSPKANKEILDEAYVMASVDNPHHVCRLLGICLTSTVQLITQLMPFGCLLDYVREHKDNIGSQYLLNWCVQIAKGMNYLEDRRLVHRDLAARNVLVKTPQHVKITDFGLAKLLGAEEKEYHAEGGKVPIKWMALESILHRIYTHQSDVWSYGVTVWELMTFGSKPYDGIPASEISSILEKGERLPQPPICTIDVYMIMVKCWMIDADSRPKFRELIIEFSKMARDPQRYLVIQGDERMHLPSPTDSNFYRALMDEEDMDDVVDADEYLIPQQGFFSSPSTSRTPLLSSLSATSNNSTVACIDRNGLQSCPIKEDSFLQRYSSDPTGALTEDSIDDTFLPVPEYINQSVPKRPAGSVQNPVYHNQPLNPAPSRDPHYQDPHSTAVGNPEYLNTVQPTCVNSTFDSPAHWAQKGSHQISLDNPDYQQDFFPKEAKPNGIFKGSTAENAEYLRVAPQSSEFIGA
T1 sequence (P04626 with tags, fused parts or gaps INS775YVMA): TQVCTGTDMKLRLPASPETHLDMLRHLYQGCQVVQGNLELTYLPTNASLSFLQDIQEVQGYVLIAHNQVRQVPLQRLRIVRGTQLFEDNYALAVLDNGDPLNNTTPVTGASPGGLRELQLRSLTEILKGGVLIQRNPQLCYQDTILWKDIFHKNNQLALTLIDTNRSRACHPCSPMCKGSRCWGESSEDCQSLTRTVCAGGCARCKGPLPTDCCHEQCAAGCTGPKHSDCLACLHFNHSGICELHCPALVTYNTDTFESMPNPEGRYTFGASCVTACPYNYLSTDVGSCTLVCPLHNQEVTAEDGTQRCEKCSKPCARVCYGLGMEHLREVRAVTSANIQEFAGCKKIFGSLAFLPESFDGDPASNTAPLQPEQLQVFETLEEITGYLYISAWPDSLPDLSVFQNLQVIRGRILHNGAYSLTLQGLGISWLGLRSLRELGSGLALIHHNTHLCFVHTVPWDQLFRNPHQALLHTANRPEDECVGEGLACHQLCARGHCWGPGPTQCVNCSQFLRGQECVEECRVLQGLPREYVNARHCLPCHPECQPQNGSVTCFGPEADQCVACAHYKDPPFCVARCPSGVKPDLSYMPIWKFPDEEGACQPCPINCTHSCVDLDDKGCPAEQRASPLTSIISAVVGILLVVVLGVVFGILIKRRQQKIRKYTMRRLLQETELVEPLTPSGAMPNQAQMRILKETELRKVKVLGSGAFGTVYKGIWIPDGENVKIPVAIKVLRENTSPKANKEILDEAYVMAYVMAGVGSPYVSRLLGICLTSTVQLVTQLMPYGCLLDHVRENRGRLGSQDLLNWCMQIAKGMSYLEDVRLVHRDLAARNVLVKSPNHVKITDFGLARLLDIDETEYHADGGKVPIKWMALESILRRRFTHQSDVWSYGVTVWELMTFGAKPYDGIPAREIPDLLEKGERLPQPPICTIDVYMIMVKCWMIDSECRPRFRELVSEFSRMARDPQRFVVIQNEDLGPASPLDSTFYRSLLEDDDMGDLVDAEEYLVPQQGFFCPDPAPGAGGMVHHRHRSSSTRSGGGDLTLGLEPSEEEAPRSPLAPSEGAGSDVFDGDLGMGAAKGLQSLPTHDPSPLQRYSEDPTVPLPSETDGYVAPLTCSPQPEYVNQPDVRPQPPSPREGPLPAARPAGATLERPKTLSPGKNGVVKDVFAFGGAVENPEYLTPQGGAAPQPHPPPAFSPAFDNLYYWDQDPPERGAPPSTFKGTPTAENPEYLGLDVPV

EC50 ([1]; Table 10 key) | EC50 [2] | EC50 ([3]; Table 10 key) | EC50 [4] | EC50 [5] | EC50 ([6]; Table 10 key) | EC50 [7] | EC50 ([1]; Table 9 key) | EC50 ([3]; Table 9 key) | EC50 ([6]; Table 9 key) | Structure (SMILES)
< 200 nM | < 200 nM | < 200 nM | < 200 nM | < 200 nM | < 200 nM | < 200 nM |  |  |  | C=CC(=O)Nc1cccc(-n2c(=O)c(Oc3c(F)cc(F)cc3F)cc3cnc(Nc4cnn(C)c4)nc32)c1 [Compound 82]
< 200 nM | < 200 nM | < 200 nM | < 200 nM | < 200 nM | < 200 nM | < 200 nM |  |  |  | C=CC(=O)Nc1cc(Nc2ncc3cc(Oc4ccc(F)cc4F)c(=O)n(CC(F)(F)F)c3n2)c(OC)cc1N(C)CCN(C)C [Compound 85]
< 200 nM | 600 to 1000 nM | < 200 nM |  | < 200 nM | < 200 nM | < 200 nM |  |  |  | C=CC(=O)Nc1cccc(-n2c(=O)c(Oc3cc(F)c(F)cc3F)cc3cnc(Nc4cnn(C)c4)nc32)c1 [Compound 87]
< 200 nM | 200 to 600 nM | < 200 nM |  | < 200 nM | 200 to 600 nM | < 200 nM |  |  |  | C=CC(=O)Nc1cccc(-n2c(=O)c(Oc3ccc(F)c(Cl)c3)cc3cnc(Nc4cnn(C)c4)nc32)c1 [Compound 88]
< 200 nM | 200 to 600 nM | < 200 nM |  | < 200 nM | < 200 nM | < 200 nM |  |  |  | C=CC(=O)Nc1cccc(-n2c(=O)c(Oc3ccc(Cl)cc3F)cc3cnc(Nc4cnn(C)c4)nc32)c1 [Compound 89]
< 200 nM | > 1000 nM | < 200 nM | < 200 nM | < 200 nM | 200 to 600 nM | 200 to 600 nM |  |  |  | C=CC(=O)Nc1ccc(OC)c(Nc2ncc3cc(Oc4ccc(F)cc4F)c(=O)n(CCN(C)C)c3n2)c1 [Compound 94]
< 200 nM | 200 to 600 nM | < 200 nM | < 200 nM | < 200 nM | < 200 nM | < 200 nM |  |  |  | C=CC(=O)Nc1cc(Nc2ncc3cc(Oc4ccc(F)cc4F)c(=O)[nH]c3n2)c(OC)cc1N(C)CCN(C)C [Compound 99]
< 200 nM | 200 to 600 nM | < 200 nM | < 200 nM | < 200 nM | < 200 nM | < 200 nM |  |  |  | C=CC(=O)N1C[C@H](Cn2c(=O)c(Oc3ccc(F)cc3F)cc3cnc(Nc4cnn(C)c4)nc32)[C@@H](OC)C1 [Compound 102]
600 to 1000 nM | > 1000 nM | 200 to 600 nM | > 1000 nM | 200 to 600 nM | 600 to 1000 nM | > 1000 nM |  |  |  | C=CC(=O)Nc1cc(Nc2ncc3cc(Oc4ccc(F)cc4F)c(=O)n(C)c3n2)ncc1N(C)CCN(C)C [Compound 105]
< 200 nM | 200 to 600 nM | < 200 nM | < 200 nM | < 200 nM | < 200 nM | < 200 nM |  |  |  | C=CC(=O)Nc1cccc(-n2c(=O)c(Oc3ccc(F)cc3F)cc3cnc(N)nc32)c1 [Compound 106]
< 200 nM |  | < 200 nM |  | 200 to 600 nM |  | < 200 nM |  |  |  | C=CC(=O)N1C[C@H](Cn2c(=O)c(Oc3ccc(F)cc3F)cc3cnc(N)nc32)[C@@H](OC)C1 [Compound 110]
> 1000 nM | > 1000 nM | > 1000 nM | > 1000 nM | > 1000 nM | > 1000 nM | > 1000 nM |  |  |  | CCC(=O)Nc1cc(Nc2ncc3cc(Oc4ccc(F)cc4F)c(=O)n(C)c3n2)c(OC)cc1N(C)CCN(C)C [Compound 111]
200 to 600 nM |  | 200 to 600 nM |  | < 200 nM |  | < 200 nM |  |  |  | C=CC(=O)N1C[C@H](Cn2c(=O)c(Oc3ccc(F)cc3F)cc3cnc(NC(C)=O)nc32)[C@@H](OC)C1 [Compound 112]
< 200 nM | 600 to 1000 nM | < 200 nM | < 200 nM | < 200 nM | < 200 nM | < 200 nM |  |  |  | C=CC(=O)Nc1cc(Nc2ncc3cc(Oc4ccc(F)cc4F)c(=O)n(C)c3n2)cnc1N(C)CCN(C)C [Compound 113]
< 200 nM | < 200 nM | < 200 nM |  | < 200 nM | < 200 nM | < 200 nM |  |  |  | C=CC(=O)Nc1cc(Nc2ncc3cc(Oc4ccc(F)cc4F)c(=O)n(C)c3n2)ccc1N(C)CCN(C)C [Compound 116]
< 200 nM | > 1000 nM | < 200 nM |  | < 200 nM | 200 to 600 nM | 200 to 600 nM |  |  |  | C=CC(=O)Nc1cc(Nc2ncc3cc(Oc4ccc(F)cc4F)c(=O)n(C)c3n2)ccc1CCCN(C)C [Compound 117]
< 200 nM | 600 to 1000 nM | < 200 nM | < 200 nM | < 200 nM | 200 to 600 nM | < 200 nM |  |  |  | CC#CC(=O)Nc1cc(Nc2ncc3cc(Oc4ccc(F)cc4F)c(=O)n(C)c3n2)c(OC)cc1N(C)CCN(C)C [Compound 125]
> 1000 nM |  | > 1000 nM |  | > 1000 nM |  | > 1000 nM |  |  |  | C=CC(=O)Nc1cc(Nc2ncc3cc(Oc4ccc(F)cc4F)c(=O)n(C)c3n2)c(OC)cc1C1CCNCC1 [Compound 127]
< 200 nM |  | 200 to 600 nM |  | 200 to 600 nM |  | 600 to 1000 nM |  |  |  | C=CC(=O)Nc1cc(Nc2ncc3cc(Oc4ccc(F)cc4F)c(=O)n(C)c3n2)c(OC)cc1C1CCN(C)CC1 [Compound 128]
< 200 nM | > 1000 nM | < 200 nM |  | < 200 nM | 600 to 1000 nM | 200 to 600 nM |  |  |  | C=CC(=O)Nc1cc(Nc2ncc3cc(Oc4ccc(F)cc4)c(=O)n(C)c3n2)ccc1N(C)CCN(C)C [Compound 129]
< 200 nM | < 200 nM | < 200 nM |  | < 200 nM | < 200 nM | < 200 nM |  |  |  | C=CC(=O)Nc1cc(Nc2ncc3cc(Oc4ccc(F)cc4)c(=O)n(C)c3n2)c(OC)cc1N(C)CCN(C)C [Compound 130]
< 200 nM | 200 to 600 nM | < 200 nM |  | < 200 nM | < 200 nM | < 200 nM |  |  |  | C=CC(=O)Nc1cc(Nc2ncc3cc(Oc4ccc(C)cc4)c(=O)n(C)c3n2)c(OC)cc1N(C)CCN(C)C [Compound 131]
< 200 nM | < 200 nM | < 200 nM |  | < 200 nM | < 200 nM | < 200 nM |  |  |  | C=CC(=O)Nc1cc(Nc2ncc3cc(Oc4ccccc4)c(=O)n(C)c3n2)c(OC)cc1N(C)CCN(C)C [Compound 132]
< 200 nM | 200 to 600 nM | < 200 nM | < 200 nM | < 200 nM | < 200 nM | < 200 nM |  |  |  | C=CC(=O)Nc1cc(Nc2ncc3cc(Oc4ccc(F)cc4Cl)c(=O)n(C)c3n2)c(OC)cc1N(C)CCN(C)C [Compound 134]
< 200 nM | 200 to 600 nM | < 200 nM | < 200 nM | < 200 nM | < 200 nM | < 200 nM |  |  |  | C=CC(=O)Nc1cc(Nc2ncc3cc(Oc4cc(F)c(F)cc4F)c(=O)n(C)c3n2)c(OC)cc1N(C)CCN(C)C [Compound 135]
< 200 nM | 200 to 600 nM | < 200 nM | < 200 nM | < 200 nM | < 200 nM | < 200 nM |  |  |  | C=CC(=O)Nc1cc(Nc2ncc3cc(Oc4c(F)cc(F)cc4F)c(=O)n(C)c3n2)c(OC)cc1N(C)CCN(C)C [Compound 136]
< 200 nM |  | < 200 nM |  |  | < 200 nM |  |  |  |  | C=CC(=O)Nc1cc(Nc2ncc3cc(Oc4ccc(F)c(Cl)c4)c(=O)n(C)c3n2)c(OC)cc1N(C)CCN(C)C [Compound 137]
 | 600 to 1000 nM |  | 200 to 600 nM | < 200 nM |  | 200 to 600 nM | < 100 nM | < 100 nM | 250 to 500 nM | C=CC(=O)Nc1cc(Nc2ncc3cc(Oc4ccc(F)cc4F)c(N)nc3n2)c(OC)cc1N(C)CCN(C)C [Compound 140]
 | 200 to 600 nM |  | < 200 nM | < 200 nM |  | < 200 nM | < 100 nM | < 100 nM | < 100 nM | C=CC(=O)Nc1cc(Nc2ncc3cc(Nc4ccc(F)cc4F)c(=O)n(C)c3n2)c(OC)cc1N(C)CCN(C)C [Compound 141]
